Data taken from patent publication US8883798B2, “Pyrimidine compounds inhibiting the formation of nitric oxide and prostaglandin E2, method of production thereof and use thereof” (Ustav Organicke Chemie a Biochemie Akademie Ved CR, V.V.I., priority 2011, dated 2014).

**Q.** For `CCc1c(Cl)nc(N)nc1Cl` [Substance 26, 2-amino-4,6-dichloro-5-ethylpyrimidine], which melting point is on record?
**A.** Its melting point is 183 to 185 °C.

**Q.** For `CCCc1c(Cl)nc(N)nc1Cl` [Substance 27, 2-amino-4,6-dichloro-5-propylpyrimidine], which melting point is on record?
**A.** The melting point was 182 to 183 °C.

**Q.** With `CCCCc1c(Cl)nc(N)nc1Cl` [Substance 28, 2-amino-5-butyl-4,6-dichloropyrimidine] as the compound, how does the melting point read?
**A.** Its melting point is 169 to 170 °C.

**Q.** For `CC(C)c1c(Cl)nc(N)nc1Cl` [Substance 29, 2-amino-4,6-dichloro-5-isopropylpyrimidine], which melting point is on record?
**A.** Its melting point is 175 to 176 °C.

**Q.** For `CCC(C)c1c(Cl)nc(N)nc1Cl` (stereo not shown) [Substance 30, 2-amino-5-(sec-butyl)-4,6-dichloropyrimidine], which melting point is on record?
**A.** Its melting point is 159 to 160 °C.

**Q.** With `Nc1nc(Cl)c(-c2ccccc2)c(Cl)n1` [Substance 31, 2-amino-4,6-dichloro-5-phenylpyrimidine] as the compound, how does the melting point read?
**A.** The melting point was 193 to 195 °C.

**Q.** With `C=CCc1c(Cl)nc(N)nc1Cl` [Substance 32, 5-allyl-2-amino-4,6-dichloropyrimidine] as the compound, how does the melting point read?
**A.** Its melting point is 175 to 177 °C.

**Q.** For `C#CCc1c(Cl)nc(N)nc1Cl` [Substance 33, 2-amino-4,6-dichloro-5-(prop-2-yn-1-yl)pyrimidine], which melting point is on record?
**A.** The melting point was 159 to 161 °C.

**Q.** For `Nc1nc(Cl)c(Cc2ccccc2)c(Cl)n1` [Substance 34, 2-amino-5-benzyl-4,6-dichloropyrimidine], which melting point is on record?
**A.** Its melting point is 196 to 197 °C.

**Q.** For `[2H]C([2H])([2H])C([2H])([2H])C([2H])([2H])C([2H])([2H])c1c(Cl)nc(N)nc1Cl` [Substance 35, 2-amino-5-(perdeutero-butyl)-4,6-dichloropyrimidine], which melting point is on record?
**A.** The melting point was 170 to 171 °C.

**Q.** For `CCC(C)c1c(I)nc(N)nc1I` (stereo not shown) [Substance 36, 2-amino-5-(sec-butyl)-4,6-diiodopyrimidine], which melting point is on record?
**A.** Its melting point is 173 to 174 °C.

**Q.** Which melting point does the source give for `Nc1nc(I)c(Cc2ccccc2)c(I)n1` [Substance 38, 2-amino-5-benzyl-4,6-diiodopyrimidine] here?
**A.** Its melting point is 198 to 199 °C.

**Q.** Which melting point does the source give for `Nc1nc(Br)c(Cc2ccccc2)c(Br)n1` [Substance 40, 2-amino-5-benzyl-4,6-dibromopyrimidine] here?
**A.** The melting point was 154 to 155 °C.

**Q.** For `CCCCc1c(Cl)nc(N)nc1-c1ccccc1` [Substance 41, 2-amino-5-butyl-4-chloro-6-phenylpyrimidine], which melting point is on record?
**A.** The melting point was 183 to 185 °C.

**Q.** For `CCCCc1c(Cl)nc(N)nc1-c1ccsc1` [Substance 42, 2-amino-5-butyl-4-chloro-6-(thiophen-3-yl)pyrimidine], which melting point is on record?
**A.** Its melting point is 154 to 155 °C.

**Q.** For `CCCCc1c(Cl)nc(N)nc1-c1cccnc1` [Substance 43, 2-amino-5-butyl-4-chloro-6-(pyridin-3-yl)pyrimidine], which melting point is on record?
**A.** Its melting point is 189 to 190 °C.

**Q.** For `CCCCc1c(Cl)nc(N)nc1-c1cc2ccccc2o1` [Substance 44, 2-amino-4-(benzofuran-2-yl)-5-butyl-6-chloropyrimidine], which melting point is on record?
**A.** Its melting point is 195 to 196 °C.

**Q.** For `CCCCc1c(-c2ccccc2)nc(N)nc1-c1ccccc1` [Substance 45, 2-amino-5-butyl-4,6-diphenylpyrimidine], which melting point is on record?
**A.** The melting point was 154 to 155 °C.

**Q.** Which melting point does the source give for `CCCCc1c(-c2cccnc2)nc(N)nc1-c1cccnc1` [Substance 46, 2-amino-5-butyl-4,6-bis(pyridin-3-yl)pyrimidine] here?
**A.** Its melting point is 173 to 174 °C.

**Q.** For `CCCCc1c(-c2cc3ccccc3o2)nc(N)nc1-c1cc2ccccc2o1` [Substance 47, 2-amino-4,6-bis(benzofuran-2-yl)-5-butylpyrimidine], which melting point is on record?
**A.** Its melting point is 142 to 144 °C.

**Q.** Which melting point does the source give for `Cc1c(Cl)nc(NC=O)nc1Cl` [Substance 48, 4,6-dichloro-2-formamido-5-methylpyrimidine] here?
**A.** Its melting point is 123 to 124 °C.

**Q.** Which melting point does the source give for `CCc1c(Cl)nc(NC=O)nc1Cl` [Substance 49, 4,6-dichloro-5-ethyl-2-formamidopyrimidine] here?
**A.** The melting point was 116 to 118 °C.

**Q.** For `CCCc1c(Cl)nc(NC=O)nc1Cl` [Substance 50, 4,6-dichloro-2-formamido-5-propylpyrimidine], which melting point is on record?
**A.** Its melting point is 92 to 94 °C.

**Q.** With `CCCCc1c(Cl)nc(NC=O)nc1Cl` [Substance 51, 5-butyl-4,6-dichloro-2-formamidopyrimidine] as the compound, how does the melting point read?
**A.** The melting point was 82 to 83 °C.

**Q.** For `[2H]C([2H])([2H])C([2H])([2H])C([2H])([2H])C([2H])([2H])c1c(Cl)nc(NC=O)nc1Cl` [Substance 52, 5-(perdeutero-butyl)-4,6-dichloro-2-formamidopyrimidine], which melting point is on record?
**A.** The melting point was 83 to 84 °C.

**Q.** For `CC(C)c1c(Cl)nc(NC=O)nc1Cl` [Substance 53, 4,6-dichloro-2-formamido-5-isopropylpyrimidine], which melting point is on record?
**A.** Its melting point is 95 to 96 °C.

**Q.** For `CCC(C)c1c(Cl)nc(NC=O)nc1Cl` (stereo not shown) [Substance 54, 5-(sec-butyl)-4,6-dichloro-2-formamidopyrimidine], which melting point is on record?
**A.** The melting point was 92 to 93 °C.

**Q.** For `CCCCCCc1c(Cl)nc(NC=O)nc1Cl` [Substance 55, 4,6-dichloro-2-formamido-5-hexylpyrimidine], which melting point is on record?
**A.** Its melting point is 80 to 81 °C.

**Q.** With `O=CNc1nc(Cl)c(-c2ccccc2)c(Cl)n1` [Substance 56, 4,6-dichloro-2-formamido-5-phenylpyrimidine] as the compound, how does the melting point read?
**A.** Its melting point is 95 to 96 °C.

**Q.** Which melting point does the source give for `C=CCc1c(Cl)nc(NC=O)nc1Cl` [Substance 57, 5-allyl-4,6-dichloro-2-formamidopyrimidine] here?
**A.** The melting point was 85 to 86 °C.

**Q.** Which melting point does the source give for `C#CCc1c(Cl)nc(NC=O)nc1Cl` [Substance 58, 4,6-dichloro-2-formamido-5-(prop-2-yn-1-yl)pyrimidine] here?
**A.** The melting point was 127 to 128 °C.

**Q.** For `O=CNc1nc(Cl)c(Cc2ccccc2)c(Cl)n1` [Substance 59, 5-benzyl-4,6-dichloro-2-formamidopyrimidine], which melting point is on record?
**A.** The melting point was 93 to 95 °C.

**Q.** For `C=C(Cl)Cc1c(Cl)nc(NC=O)nc1Cl` [Substance 60, 4,6-dichloro-5-(2-chloroallyl)-2-formamidopyrimidine], which melting point is on record?
**A.** Its melting point is 113 to 115 °C.

**Q.** For `CCCCc1c(Cl)ncnc1Cl` [Substance 61, 5-butyl-4,6-dichloropyrimidine], which melting point is on record?
**A.** Its melting point is 62 to 63 °C.

**Q.** With `CCCCc1c(Cl)nc(C)nc1Cl` [Substance 62, 5-butyl-4,6-dichloro-2-methylpyrimidine] as the compound, how does the melting point read?
**A.** Its melting point is 50 to 51 °C.

**Q.** Which melting point does the source give for `CCCCc1c(Cl)nc(N(C)C)nc1Cl` [Substance 63, 5-butyl-4,6-dichloro-2-(dimethylamino)pyrimidine] here?
**A.** The melting point was 42 to 45 °C.

**Q.** Which melting point does the source give for `CCCCc1c(Cl)nc(O)nc1Cl` [Substance 65, 5-butyl-4,6-dichloro-2-hydroxypyrimidine] here?
**A.** The melting point was 73 to 75 °C.
